From patent publication US5536729A, “Rapamycin formulations for oral administration” (priority 1994, dated 1996)

Tests used:
[1] = set-up: species or system Cynomolgus monkeys; conditions: cynomolgus monkey, in vivo, po, 50 mg/kg
Description: Cynomolgus monkeys were administered the formulation above at a dose of 0.25 mg/kg of rapamycin and the following serum concentrations were determined at the indicated time after dosing.
Cynomolgus monkeys were administered the above formulation at a dose of 50 mg/kg of rapamycin and the following serum concentrations were determined at the indicated time after dosing.
Cynomolgus monkeys were administered this second comparative formulation at a dose of 50 mg/kg of rapamycin and the following serum concentrations were determined at the indicated time after dosing.

transplant rejection = conditions: useful in preventing transplant rejection; cited from earlier work
Candida albicans = conditions: cited from earlier work
Microsporum gypseum = conditions: cited from earlier work
[2] = test system: rejection in vivo in allograft transplantation; conditions: Calne 1989; Morris and Meiser 1989; cited from earlier work
tumor = conditions: in vivo; cited from earlier work
[3] = test system: experimental allergic encephalomyelitis; conditions: model for multiple sclerosis; Martel 1977; cited from earlier work
adjuvant arthritis = conditions: model for rheumatoid arthritis; Martel 1977; cited from earlier work
IgE-like antibodies = conditions: Martel 1977; cited from earlier work
[4] = test system: systemic lupus erythematosus; conditions: U.S. Pat. No. 5,078,999; cited from earlier work
pulmonary inflammation = conditions: U.S. Pat. No. 5,080,899; cited from earlier work
[5] = test system: insulin dependent diabetes mellitus; conditions: Fifth Int. Conf. Inflamm. Res. Assoc. 1990; cited from earlier work
[6] = test system: smooth muscle cell proliferation and intimal thickening; conditions: following vascular injury; Morris 1992; cited from earlier work
thymocyte = conditions: in vitro; cited from earlier work
[7] = cited from earlier work

| Compound | Rapamycin Concentration in Monkey Serum [1] | immunosuppressive effect (transplant rejection) | effect on growth of fungi (Candida albicans) | effect on growth of fungi (Microsporum gypseum) | inhibiting rejection in vivo in allograft transplantation [2] | antitumor activity (tumor) | efficacy in experimental allergic encephalomyelitis model [3] | efficacy in adjuvant arthritis model (adjuvant arthritis) | formation of IgE-like antibodies (IgE-like antibodies) | preventing or treating systemic lupus erythematosus [4] | preventing or treating pulmonary inflammation (pulmonary inflammation) | preventing or treating insulin dependent diabetes mellitus [5] | preventing or treating smooth muscle cell proliferation and intimal thickening [6] | thymocyte proliferation (thymocyte) | activity in vivo [7] |
| --- | --- | --- | --- | --- | --- | --- | --- | --- | --- | --- | --- | --- | --- | --- | --- |
| CO[C@H]1C[C@@H]2CC[C@@H](C)[C@@](O)(O2)C(=O)C(=O)N2CCCC[C@H]2C(=O)O[C@H]([C@H](C)C[C@@H]2CC[C@@H](O)[C@H](OC)C2)CC(=O)[C@H](C)/C=C(\C)[C@@H](O)[C@@H](OC)C(=O)[C@H](C)C[C@H](C)/C=C/C=C/C=C/1C [Comparative Example 2] | BDL (key: BDL: Below detection limit (detection limit = 0.006 μg/ml)) |  |  |  |  |  |  |  |  |  |  |  |  |  |  |
| C=CC[C@@H]1/C=C(\C)C[C@H](C)C[C@H](OC)[C@H]2O[C@@](O)(C(=O)C(=O)N3CCCC[C@H]3C(=O)O[C@H](/C(C)=C/[C@@H]3CC[C@@H](O)[C@H](OC)C3)[C@H](C)[C@@H](O)CC1=O)[C@H](C)C[C@@H]2OC [FK-506] |  | effective as immunosuppressive agents |  |  |  |  |  |  |  |  |  |  |  |  |  |
| CO[C@H]1C[C@@H]2CC[C@@H](C)[C@@](O)(O2)C(=O)C(=O)N2CCCC[C@H]2C(=O)O[C@H]([C@H](C)C[C@@H]2CC[C@@H](O)[C@H](OC)C2)CC(=O)[C@H](C)/C=C(\C)[C@@H](O)[C@@H](OC)C(=O)[C@H](C)C[C@H](C)/C=C/C=C/C=C/1C [Rapamycin, rapamycin] |  | immunosuppressive effects | adversely affects the growth of fungi | adversely affects the growth of fungi | effectiveness of rapamycin in inhibiting rejection in vivo in allograft transplantation | antitumor activity | effective | effective | effectively inhibited | useful in preventing or treating | useful in preventing or treating | useful in preventing or treating | useful in preventing or treating | inhibit thymocyte proliferation in vitro | immunosuppressive, antifungal and antiinflammatory activity in vivo |
